Legend:
Assay type in all cases: biochemical
[1] = biological target: T1, recombinant human cathepsin S (Homo sapiens, UniProt P25774); assay: Cathepsin S kinetic fluorescence enzyme inhibition assay; conditions: selectivity ratio versus calpain I
T1 construct: purchased Calbiochem 219343; host or cells: E. coli
Method in brief: (§1)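 Inhibition is measured at room temperature in cysteine-containing MES buffer, pH 6.0, by continuous fluorescence at 460 nm. Cathepsin S (0.5 nM) uses 20 μM Z-Val-Val-Arg-AMC; L (1 nM) and B (0.25 nM) use Z-Phe-Arg-AMC at 2 and 100 μM respectively.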

[2] = biological target: T2, calpain-I isolated from human erythrocytes (Homo sapiens, UniProt P07384); assay: Calpain I kinetic fluorescence enzyme inhibition assay; conditions: apparent Ki from IC50 by Cheng-Prussoff; average of 2 to 4 dose-effect plots
T2 construct: calpain-I—isolated from human erythrocytes; purchased Calbiochem 208713; host or cells: human erythrocytes (tissue isolate)
T2 sequence (P07384 1-714): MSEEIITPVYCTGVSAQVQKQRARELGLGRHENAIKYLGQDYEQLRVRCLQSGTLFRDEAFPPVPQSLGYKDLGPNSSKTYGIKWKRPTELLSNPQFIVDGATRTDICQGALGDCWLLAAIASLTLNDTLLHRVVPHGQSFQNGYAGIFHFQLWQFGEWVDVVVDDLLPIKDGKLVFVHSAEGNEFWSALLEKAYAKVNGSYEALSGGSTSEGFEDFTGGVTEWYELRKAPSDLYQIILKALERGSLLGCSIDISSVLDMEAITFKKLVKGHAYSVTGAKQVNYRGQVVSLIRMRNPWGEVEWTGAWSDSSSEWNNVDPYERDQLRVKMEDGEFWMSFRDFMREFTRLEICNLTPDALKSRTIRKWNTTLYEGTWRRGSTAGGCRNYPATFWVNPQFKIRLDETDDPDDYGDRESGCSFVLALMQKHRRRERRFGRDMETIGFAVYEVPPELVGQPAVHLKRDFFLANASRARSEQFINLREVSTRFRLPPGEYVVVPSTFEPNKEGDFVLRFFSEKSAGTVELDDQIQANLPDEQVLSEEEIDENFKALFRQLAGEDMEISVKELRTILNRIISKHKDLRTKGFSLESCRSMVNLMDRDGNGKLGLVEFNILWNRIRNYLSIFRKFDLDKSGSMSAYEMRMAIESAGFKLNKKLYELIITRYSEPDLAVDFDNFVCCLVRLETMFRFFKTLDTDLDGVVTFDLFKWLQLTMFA
T2 sequence (P04632 1-268 partner): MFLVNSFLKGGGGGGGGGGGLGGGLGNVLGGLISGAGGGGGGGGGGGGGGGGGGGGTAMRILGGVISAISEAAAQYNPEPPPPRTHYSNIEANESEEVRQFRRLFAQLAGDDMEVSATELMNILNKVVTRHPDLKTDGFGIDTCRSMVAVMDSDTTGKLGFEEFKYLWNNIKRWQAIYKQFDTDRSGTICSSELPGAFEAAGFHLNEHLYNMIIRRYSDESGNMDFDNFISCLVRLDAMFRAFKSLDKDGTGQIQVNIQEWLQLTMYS

[3] = biological target: T3, cathepsin L isolated from human liver (Homo sapiens, UniProt P07711); assay: Cathepsin L kinetic fluorescence enzyme inhibition assay; conditions: selectivity ratio versus calpain I
T3 construct: cathepsin L—isolated from human liver; purchased Calbiochem 219402; host or cells: human liver (tissue isolate)
T3 sequence (P07711 114-333): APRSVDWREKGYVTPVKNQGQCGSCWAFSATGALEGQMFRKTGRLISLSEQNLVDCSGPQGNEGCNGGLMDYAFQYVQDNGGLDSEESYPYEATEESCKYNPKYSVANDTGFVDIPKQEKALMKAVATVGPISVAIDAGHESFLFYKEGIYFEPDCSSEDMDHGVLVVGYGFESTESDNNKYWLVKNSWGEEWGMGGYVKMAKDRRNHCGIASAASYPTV
Method in brief: as §1

[4] = biological target: T4, cathepsin K activated from recombinant human procathepsin K (Homo sapiens, UniProt P43235); assay: Cathepsin K kinetic fluorescence enzyme inhibition assay; conditions: selectivity ratio versus calpain I
T4 construct: purchased Calbiochem 342001; host or cells: E. coli
T4 sequence (P43235 115-329): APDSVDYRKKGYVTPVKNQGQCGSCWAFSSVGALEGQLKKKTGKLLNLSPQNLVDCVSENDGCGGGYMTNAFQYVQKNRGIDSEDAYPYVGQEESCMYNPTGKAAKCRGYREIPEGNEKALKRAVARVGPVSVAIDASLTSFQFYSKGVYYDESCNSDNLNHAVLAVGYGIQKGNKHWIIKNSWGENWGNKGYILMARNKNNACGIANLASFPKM

[5] = biological target: T5, cathepsin B isolated from human liver (Homo sapiens, UniProt P07858); assay: Cathepsin B kinetic fluorescence enzyme inhibition assay; conditions: selectivity ratio versus calpain I
T5 construct: cathepsin B—isolated from human liver; purchased Calbiochem 219362; host or cells: human liver (tissue isolate)
Method in brief: as §1

T1 sequence (P25774 115-331): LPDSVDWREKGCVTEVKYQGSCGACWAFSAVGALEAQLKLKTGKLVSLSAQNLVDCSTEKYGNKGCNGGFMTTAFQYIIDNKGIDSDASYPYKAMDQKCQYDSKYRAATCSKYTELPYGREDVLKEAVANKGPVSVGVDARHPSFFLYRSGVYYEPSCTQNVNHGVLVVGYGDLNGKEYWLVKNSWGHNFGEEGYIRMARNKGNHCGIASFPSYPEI

In the case of NC(=O)C(=O)C(Cc1ccccc1)NC(=O)c1cccnc1-n1ccc(-c2ccccc2Cl)n1 (centres unmarked) [Example 54, N-(3-Amino-1-benzyl-2,3-dioxopropyl)-2-[3-(2-chlorophenyl)-1H-pyrazol-1-yl]nicotinamide], the “Sel cat. S (Ki(cathepsin S)/Ki(calpain) ratio)” value [1] is reported as “++ (Ki(cathepsin S)/Ki(calpain) ratio of ≧100)”, the Ki [2] is reported as 40 to 100 nM and the “Sel cat. L (Ki(cathepsin L)/Ki(calpain) ratio)” value [3] is reported as “++ (Ki(cathepsin L)/Ki(calpain) ratio of ≧50)”. For the same compound, the “Sel cat. K (Ki(cathepsin K)/Ki(calpain) ratio)” value [4] was “++ (Ki(cathepsin K)/Ki(calpain) ratio of ≧30)” and the “Sel cat. B (Ki(cathepsin B)/Ki(calpain) ratio)” value [5] was “++ (Ki(cathepsin B)/Ki(calpain) ratio of ≧30)”.
With NC(=O)C(=O)C(Cc1ccccc1)NC(=O)c1cccnc1-n1ccc(-c2cccs2)n1 (centres unmarked) [Example 55, N-(3-Amino-1-benzyl-2,3-dioxopropyl)-2-[3-(2-thienyl)-1H-pyrazol-1-yl]nicotinamide] the “Sel cat. S (Ki(cathepsin S)/Ki(calpain) ratio)” value [1] was “++ (Ki(cathepsin S)/Ki(calpain) ratio of ≧100)”, the Ki [2] was at most 40 nM and the “Sel cat. L (Ki(cathepsin L)/Ki(calpain) ratio)” value [3] was “++ (Ki(cathepsin L)/Ki(calpain) ratio of ≧50)”. For the same compound, the “Sel cat. K (Ki(cathepsin K)/Ki(calpain) ratio)” value [4] was “+ (10≦Ki(cathepsin K)/Ki(calpain)<30)” and the “Sel cat. B (Ki(cathepsin B)/Ki(calpain) ratio)” value [5] was “+ (10≦Ki(cathepsin B)/Ki(calpain)<30)”.
In the case of NC(=O)C(=O)C(Cc1ccccc1)NC(=O)c1cccnc1-n1ccc(-c2cccc(N3CCOCC3)c2)n1 (centres unmarked) [Example 58, N-(3-Amino-1-benzyl-2,3-dioxopropyl)-2-[3-(3-morpholin-4-ylphenyl)-1H-pyrazol-1-yl]nicotinamide], the “Sel cat. S (Ki(cathepsin S)/Ki(calpain) ratio)” value [1] is reported as “++ (Ki(cathepsin S)/Ki(calpain) ratio of ≧100)”, the Ki [2] is reported as at most 40 nM and the “Sel cat. L (Ki(cathepsin L)/Ki(calpain) ratio)” value [3] is reported as “++ (Ki(cathepsin L)/Ki(calpain) ratio of ≧50)”. For the same compound, the “Sel cat. K (Ki(cathepsin K)/Ki(calpain) ratio)” value [4] was “+ (10≦Ki(cathepsin K)/Ki(calpain)<30)” and the “Sel cat. B (Ki(cathepsin B)/Ki(calpain) ratio)” value [5] was “+ (10≦Ki(cathepsin B)/Ki(calpain)<30)”.
In the case of NC(=O)C(=O)C(Cc1ccccc1)NC(=O)c1cccnc1-n1ccc(-c2ccc(C(F)(F)F)cc2)n1 (centres unmarked) [Example 60, N-(3-Amino-1-benzyl-2,3-dioxopropyl)-2-{3-[4-(trifluoromethyl)phenyl]-1H-pyrazol-1-yl}nicotinamide], the “Sel cat. S (Ki(cathepsin S)/Ki(calpain) ratio)” value [1] is reported as “+ (50≦Ki(cathepsin S)/Ki(calpain)<100)”, the Ki [2] is reported as 40 to 100 nM and the “Sel cat. L (Ki(cathepsin L)/Ki(calpain) ratio)” value [3] is reported as “++ (Ki(cathepsin L)/Ki(calpain) ratio of ≧50)”. The “Sel cat. K (Ki(cathepsin K)/Ki(calpain) ratio)” value [4] was “+ (10≦Ki(cathepsin K)/Ki(calpain)<30)” and the “Sel cat. B (Ki(cathepsin B)/Ki(calpain) ratio)” value [5] was “+ (10≦Ki(cathepsin B)/Ki(calpain)<30)”.
With NC(=O)C(=O)C(Cc1ccccc1)NC(=O)c1cccnc1-n1cc2c(n1)-c1ccccc1CC2 (centres unmarked) [Example 63, N-(3-Amino-1-benzyl-2,3-dioxopropyl)-2-(4,5-dihydro-2H-benzo[g]indazol-2-yl)nicotinamide] the “Sel cat. S (Ki(cathepsin S)/Ki(calpain) ratio)” value [1] was “++ (Ki(cathepsin S)/Ki(calpain) ratio of ≧100)”, the Ki [2] was at most 40 nM and the “Sel cat. L (Ki(cathepsin L)/Ki(calpain) ratio)” value [3] was “++ (Ki(cathepsin L)/Ki(calpain) ratio of ≧50)”. For the same compound, the “Sel cat. K (Ki(cathepsin K)/Ki(calpain) ratio)” value [4] was “+ (10≦Ki(cathepsin K)/Ki(calpain)<30)” and the “Sel cat. B (Ki(cathepsin B)/Ki(calpain) ratio)” value [5] was “+ (10≦Ki(cathepsin B)/Ki(calpain)<30)”.
In the case of NC(=O)C(=O)C(Cc1ccc(Cl)cc1)NC(=O)c1cccnc1-n1ccc(-c2ccc(F)cc2)n1 (centres unmarked) [Example 67, N-[3-Amino-1-(4-chlorobenzyl)-2,3-dioxopropyl]-2-[3-(4-fluorophenyl)-1H-pyrazol-1-yl]nicotinamide], the “Sel cat. S (Ki(cathepsin S)/Ki(calpain) ratio)” value [1] is reported as “++ (Ki(cathepsin S)/Ki(calpain) ratio of ≧100)”, the Ki [2] is reported as 40 to 100 nM and the “Sel cat. L (Ki(cathepsin L)/Ki(calpain) ratio)” value [3] is reported as “++ (Ki(cathepsin L)/Ki(calpain) ratio of ≧50)”. For the same compound, the “Sel cat. K (Ki(cathepsin K)/Ki(calpain) ratio)” value [4] was “+ (10≦Ki(cathepsin K)/Ki(calpain)<30)” and the “Sel cat. B (Ki(cathepsin B)/Ki(calpain) ratio)” value [5] was “+ (10≦Ki(cathepsin B)/Ki(calpain)<30)”.
For NC(=O)C(=O)C(Cc1ccccc1)NC(=O)c1cccnc1-n1ccc(-c2ccc(N3CCCC3)cc2)n1 (centres unmarked) [Example 69, N-(3-Amino-1-benzyl-2,3-dioxopropyl)-2-[3-(4-pyrrolidin-1-ylphenyl)-1H-pyrazol-1-yl]nicotinamide], the “Sel cat. S (Ki(cathepsin S)/Ki(calpain) ratio)” value [1] was “++ (Ki(cathepsin S)/Ki(calpain) ratio of ≧100)”, the Ki [2] was 40 to 100 nM and the “Sel cat. L (Ki(cathepsin L)/Ki(calpain) ratio)” value [3] was “++ (Ki(cathepsin L)/Ki(calpain) ratio of ≧50)”. The “Sel cat. K (Ki(cathepsin K)/Ki(calpain) ratio)” value [4] was “+ (10≦Ki(cathepsin K)/Ki(calpain)<30)” and the “Sel cat. B (Ki(cathepsin B)/Ki(calpain) ratio)” value [5] was “+ (10≦Ki(cathepsin B)/Ki(calpain)<30)”.

Reference: patent US7728012B2, “Carboxamide compounds and their use as calpain inhibitors” (Abbott GmbH & Co. KG, priority 2006, dated 2010)
